# In ChEMBL document CHEMBL1201862, “PubChem BioAssay data set” (2004):
#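 96-well plates; 48 h exposure; 5 concentrations. Endpoints by linear interpolation between flanking doses. Not reached: highest tested concentration assigned. Here, GI50 denotes the concentration required for 50% inhibition of growth.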 Active and inactive are the calls of the source. No stated cut-off is given here; in the data, active = GI50 up to about 1.1 µM and inactive = higher.
# How the values were obtained:
# Experiment in all cases: NCI-60 cell line screen, 48 h
# SN12C = test system: SN12C
# HL-60 = test system: HL-60
# CCRF-CEM = test system: CCRF-CEM
# NCI-H522 = test system: NCI-H522
# MDA-MB-435 = test system: MDA-MB-435
# SF-268 = test system: SF-268
# Malme-3M = test system: Malme-3M
# SK-MEL-28 = test system: SK-MEL-28
# IGROV-1 = test system: IGROV-1
# 786-0 = test system: 786-0
# BT-549 = test system: BT-549
# MCF7 = test system: MCF7
# OVCAR-3 = test system: OVCAR-3
# SR = test system: SR
# SF-539 = test system: SF-539
# T47D = test system: T47D
# HOP-62 = test system: HOP-62
# TK-10 = test system: TK-10
# UACC-62 = test system: UACC-62
# NCI-H23 = test system: NCI-H23
# OVCAR-5 = test system: OVCAR-5
# CAKI-1 = test system: CAKI-1
# K562 = test system: K562
# SW-620 = test system: SW-620
# UO-31 = test system: UO-31
# Hs-578T = test system: Hs-578T
# HOP-92 = test system: HOP-92
# SK-OV-3 = test system: SK-OV-3
# ACHN = test system: ACHN
# HT-29 = test system: HT-29
# SNB-19 = test system: SNB-19
# NCI/ADR-RES = test system: NCI/ADR-RES
# M14 = test system: M14
# HCC 2998 = test system: HCC 2998
# HCT-15 = test system: HCT-15
# RPMI-8226 = test system: RPMI-8226
# OVCAR-8 = test system: OVCAR-8
# SF-295 = test system: SF-295
# EKVX = test system: EKVX
# UACC-257 = test system: UACC-257
# MDA-MB-231 = test system: MDA-MB-231
# OVCAR-4 = test system: OVCAR-4
# PC-3 = test system: PC-3
# SK-MEL-2 = test system: SK-MEL-2
# RXF 393 = test system: RXF 393
# A549 = test system: A549
# MOLT-4 = test system: MOLT-4
# MDA-N = test system: MDA-N
# SK-MEL-5 = test system: SK-MEL-5
# COLO 205 = test system: COLO 205
# SNB-75 = test system: SNB-75
# U-251 = test system: U-251
# NCI-H460 = test system: NCI-H460
# HCT-116 = test system: HCT-116
# KM12 = test system: KM12
# NCI-H226 = test system: NCI-H226
# LOX IMVI = test system: LOX IMVI
structure (smiles),measurement,setting,value
C[n+]1cn(-c2nc3ccccc3nc2[N-]S(=O)(=O)c2ccccc2)c2ccccc21,GI50,SN12C,> 100 µM (inactive)
same,GI50,HL-60,> 100 µM (inactive)
same,GI50,CCRF-CEM,> 100 µM (inactive)
same,GI50,NCI-H522,0.222 µM (active)
same,GI50,MDA-MB-435,> 100 µM (inactive)
same,GI50,SF-268,> 100 µM (inactive)
same,GI50,Malme-3M,> 100 µM (inactive)
same,GI50,SK-MEL-28,> 100 µM (inactive)
same,GI50,IGROV-1,> 100 µM (inactive)
same,GI50,786-0,> 100 µM (inactive)
same,GI50,BT-549,> 100 µM (inactive)
same,GI50,MCF7,> 100 µM (inactive)
same,GI50,OVCAR-3,> 100 µM (inactive)
same,GI50,SR,> 100 µM (inactive)
same,GI50,SF-539,> 100 µM (inactive)
same,GI50,T47D,> 100 µM (inactive)
same,GI50,HOP-62,> 100 µM (inactive)
same,GI50,TK-10,> 100 µM (inactive)
same,GI50,UACC-62,> 100 µM (inactive)
same,GI50,NCI-H23,> 100 µM (inactive)
same,GI50,OVCAR-5,> 100 µM (inactive)
same,GI50,CAKI-1,> 100 µM (inactive)
same,GI50,K562,> 100 µM (inactive)
same,GI50,SW-620,> 100 µM (inactive)
same,GI50,UO-31,80.7 µM (inactive)
same,GI50,Hs-578T,> 100 µM (inactive)
same,GI50,HOP-92,> 100 µM (inactive)
same,GI50,SK-OV-3,> 100 µM (inactive)
same,GI50,ACHN,> 100 µM (inactive)
same,GI50,HT-29,> 100 µM (inactive)
same,GI50,SNB-19,> 100 µM (inactive)
same,GI50,NCI/ADR-RES,> 100 µM (inactive)
same,GI50,M14,> 100 µM (inactive)
same,GI50,HCC 2998,> 100 µM (inactive)
same,GI50,HCT-15,> 100 µM
same,GI50,RPMI-8226,> 100 µM (inactive)
same,GI50,OVCAR-8,> 100 µM (inactive)
same,GI50,SF-295,> 100 µM (inactive)
same,GI50,EKVX,> 100 µM (inactive)
same,GI50,UACC-257,> 100 µM (inactive)
same,GI50,MDA-MB-231,> 100 µM (inactive)
same,GI50,OVCAR-4,> 100 µM (inactive)
same,GI50,PC-3,> 100 µM (inactive)
same,GI50,SK-MEL-2,> 100 µM (inactive)
same,GI50,RXF 393,62.2 µM (inactive)
same,GI50,A549,> 100 µM (inactive)
same,GI50,MOLT-4,> 100 µM (inactive)
same,GI50,MDA-N,> 100 µM (inactive)
same,GI50,SK-MEL-5,> 100 µM (inactive)
same,GI50,COLO 205,> 100 µM (inactive)
same,GI50,SNB-75,> 100 µM (inactive)
same,GI50,U-251,> 100 µM (inactive)
same,GI50,NCI-H460,> 100 µM (inactive)
same,GI50,HCT-116,> 100 µM (inactive)
same,GI50,KM12,> 100 µM (inactive)
same,GI50,NCI-H226,> 100 µM (inactive)
same,GI50,LOX IMVI,> 100 µM (inactive)
